Source: paper PMC2923275 (Biochemical pharmacology, 2010)

Columns and labels:
[1] = system: wild type (RH) strain of T. gondii; experiment: Anti-toxoplasmic activity in tissue culture; assay type: cell-based, Toxoplasma gondii; conditions: wild type (RH) in human fibroblasts
[2] = system: Toxoplasma gondii adenosine kinase; conditions: cited from earlier work; for Km: read-out: Km (binding affinity), apparent Km equal to apparent Ki
[3] = system: adenosine kinase deficient (TgAK^-3) strain of T. gondii; experiment: Anti-toxoplasmic activity in tissue culture; assay type: cell-based, Toxoplasma gondii; conditions: TgAK^-3 in human fibroblasts
[4] = target: purified T. gondii adenosine kinase (Toxoplasma gondii, UniProt Q9TVW2); experiment: Alternative substrate assay with purified recombinant enzyme; assay type: biochemical; conditions: 100 μM analogue, overnight at 37°C, HPLC
[5] = system: uninfected human foreskin fibroblasts; experiment: Host toxicity, MTT assay on uninfected host cells; conditions: infection: None
[6] = system: Toxoplasma gondii adenosine kinase; experiment: Binding affinity; conditions: relative to 6-(p-methylbenzylthio)inosine; ref 24 and Table 2

purified T. gondii adenosine kinase, sequence (Q9TVW2 whole entry): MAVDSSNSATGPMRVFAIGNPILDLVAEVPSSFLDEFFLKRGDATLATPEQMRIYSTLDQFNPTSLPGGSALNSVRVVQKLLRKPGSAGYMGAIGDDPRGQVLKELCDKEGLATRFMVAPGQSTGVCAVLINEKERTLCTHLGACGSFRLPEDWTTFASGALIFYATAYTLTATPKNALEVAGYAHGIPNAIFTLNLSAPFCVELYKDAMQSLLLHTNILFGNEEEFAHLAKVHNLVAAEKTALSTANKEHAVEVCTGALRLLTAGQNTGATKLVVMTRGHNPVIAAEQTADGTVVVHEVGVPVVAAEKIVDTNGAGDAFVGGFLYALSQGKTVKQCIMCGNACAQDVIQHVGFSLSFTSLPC

Row | Molecule | percent survival of parasite ([1]; 5 μM compound) | percent survival of parasite ([1]; 10 μM compound) | percent survival of parasite ([1]; 25 μM compound) | percent survival of parasite ([1]; 50 μM compound) | Km [2] | percent survival of parasite ([3]; 5 μM compound) | percent survival of parasite ([3]; 10 μM compound) | percent survival of parasite ([3]; 25 μM compound) | percent survival of parasite ([3]; 50 μM compound) | increase of relative binding affinity by inclusion of the 7-deaza motif ([2]; relative to 6-(p-methylbenzylthio)inosine) | metabolism to nucleoside 5'-monophosphate by the enzyme [4] | host-toxicity (survival of uninfected host cells) ([5]; 5 μM compound) | host-toxicity (survival of uninfected host cells) ([5]; 10 μM compound) | host-toxicity (survival of uninfected host cells) ([5]; 25 μM compound) | host-toxicity (survival of uninfected host cells) ([5]; 50 μM compound) | enhancement of binding by inclusion of the carbocyclic motif [6]
1 | 6-Benzylthioinosine [Compound 22, reference compound] | 92.7% | 45.8% | 7.6% | 0.0% | 14.3 µM | 100% | 100% | 100% | 100% | – | – | – | – | – | – | –
2 | 7-deaza-6-(p-methylbenzylthio)inosines | – | – | – | – | – | – | – | – | – | 2.8 fold | – | – | – | – | – | –
3 | OCC1CC(n2cnc3c(SCc4ccccc4)ncnc32)C(O)C1O (centres unmarked) [Compound 1, Carbocyclic 6-(benzylthio)inosine] | 84.7% | 42.7% | 4.9% | 0.0% | 105 µM | 100% | 100% | 100% | 100% | – | converted to their respective nucleoside 5’-monophosphates | 100% | 100% | 100% | 94.3% | –
4 | OCC1CC(n2cnc3c(SCc4ccc(F)cc4)ncnc32)C(O)C1O (centres unmarked) [Compound 8, Carbocyclic 6-(p-fluorobenzylthio)inosine] | 89.2% | 61.5% | 12.4% | 3.4% | – | 100% | 100% | 100% | 100% | – | its 5’-monophosphate derivative appeared as a new peak | 100% | 100% | 100% | 100% | –
5 | Cc1ccc(CSc2ncnc3c2ncn3C2CC(CO)C(O)C2O)cc1 (centres unmarked) [Compound 11, Carbocyclic 6-(p-methylbenzylthio)inosine] | 43.4% | 2.54% | 0.0% | 0.0% | – | 99.0% | 100% | 100% | 100% | – | – | 100% | 100% | 100% | 100% | 3.7 fold
6 | COC(=O)c1ccc(CSc2ncnc3c2ncn3C2CC(CO)C(O)C2O)cc1 (centres unmarked) [Compound 14, Carbocyclic 6-(p-methoxycarbonylbenzylthio)inosine] | 53.9% | 6.3% | 1.5% | 0.0% | – | 100% | 100% | 100% | 100% | – | – | 100% | 99.4% | 88.7% | 87.1% | –
7 | COc1ccc(CSc2ncnc3c2ncn3C2CC(CO)C(O)C2O)cc1 (centres unmarked) [Compound 15, Carbocyclic 6-(p-methoxybenzylthio)inosine] | 48.3% | 1.9% | 0.0% | 0.0% | – | 98.4% | 100% | 100% | 100% | – | – | 100% | 100% | 94.3% | 82.1% | –
8 | OCC1CC(n2cnc3c(SCc4ccc(OC(F)(F)F)cc4)ncnc32)C(O)C1O (centres unmarked) [Compound 16, Carbocyclic 6-(p-trifluoromethoxybenzylthio)inosine] | 87.3% | 53.6% | 8.1% | 0.0% | – | 100% | 100% | 100% | 100% | – | – | 100% | 98.2% | 96.7% | 89.3% | –
9 | CS(=O)(=O)c1ccc(CSc2ncnc3c2ncn3C2CC(CO)C(O)C2O)cc1 (centres unmarked) [Compound 17, Carbocyclic 6-(p-methylsulfonylbenzylthio)inosine] | 66.8% | 21.2% | 0.0% | 0.0% | – | 100% | 100% | 100% | 100% | – | – | 100% | 100% | 100% | 100% | –
10 | OCC1CC(n2cnc3c(SCc4ccc(Cl)cc4Cl)ncnc32)C(O)C1O (centres unmarked) [Compound 18, Carbocyclic 6-(o,p-dichlorobenzylthio)inosine] | 84.4% | 45.1% | 0.0% | 0.0% | – | 100% | 100% | 100% | 100% | – | – | 100% | 100% | 100% | 90.6% | –
11 | OCC1CC(n2cnc3c(SCc4ccc(Cl)c(Cl)c4)ncnc32)C(O)C1O (centres unmarked) [Compound 19, Carbocyclic 6-(m,p-dichlorobenzylthio)inosine] | 59.7% | 17.8% | 8.3% | 1.5% | – | 100% | 100% | 100% | 100% | – | – | 100% | 100% | 100% | 73.1% | –
12 | OCC1CC(n2cnc3c(SCc4c(F)cccc4Cl)ncnc32)C(O)C1O (centres unmarked) [Compound 20, Carbocyclic 6-(o-chloro-o-fluorobenzylthio)inosine] | 56.3% | 15.6% | 3.7% | 0.0% | – | 100% | 100% | 100% | 100% | – | – | 100% | 100% | 100% | 100% | –
13 | Cc1ccc(CSc2ncnc3c2ncn3C2CC(CO)C(O)C2O)c(C)c1C (centres unmarked) [Compound 21, Carbocyclic 6-(o,m,p-trimethylbenzylthio)inosine] | 71.0% | 32.7% | 0.0% | 0.0% | – | 100% | 100% | 100% | 100% | – | – | 100% | 100% | 90.6% | 93.2% | –
